Experimental data as given in patent US20170368082A1, “FORMULATIONS OF BRINCIDOFOVIR” (priority 2016, published 2017).
Where two headings read alike, the source gives them in different places.

Test: Phase 2 toxicokinetics of brincidofovir and cidofovir in plasma
Format: in vivo, Sprague-Dawley CD rats
Settings: plasma; for AUC(0-t) / Cmax / Tmax / concentration at 1 h / concentration at 2 h / concentration at 8 h / concentration at 24 h / concentration at 0 h: Sprague-Dawley CD, rat; for AUC(0-t) / Cmax / Tmax: iv, brincidofovir in plasma; for Tmax: read-out: Tmax; for concentration at 1 h / concentration at 2 h / concentration at 8 h / concentration at 24 h / concentration at 0 h: intravenous
Experimental: Plasma samples (108) were collected 2 hours following the initiation of dosing on Day 1 and Day 7 (Group 1), or at 1, 2, 8, and 24 hours following the initiation of dosing on Day 1, and prior to administration and at 2, 8, and 24 hours following the initiation of dosing on Day 7 (Groups 2 and 3), and analyzed to determine the concentrations of brincidofovir and the metabolite, cidofovir), by LC/MS/MS.
Approximately 0.4 mL of whole blood was obtained via the tail vein from each animal at each time point. Animals were not fasted prior to blood collection. Blood was collected into tubes containing K2EDTA anticoagulant and placed on wet ice in an upright position, per facility SOP prior to processing. Plasma was separated by centrifugation (10 minutes at approximately 2000 g, at approximately 2-8° C.). Approximately 0.10 mL of plasma was transferred into a single cryotube appropriately labeled with study number, animal number, time point, date of sampling and sample type. Remaining plasma was transferred into a second cryotube and retained as a backup sample. Plasma frozen at approximately −80±10° C. within approximately 2 hours after collection of each blood sample until analysis. Animals were euthanized (CO2 inhalation) after the final blood collection.
In general, TK parameters were estimated using mean plasma concentrations of brincidofovir and cidofovir derived from the composite blood sampling design using Phoenix WinNonLin (V 6.3).
A composite blood sampling design was used such that each rat was sampled twice per sampling day. Blood was collected via tail vein from unanesthetized animals into tubes containing anticoagulant and placed on wet ice in an upright position. Animals were not fasted prior to blood collection. Plasma was separated by centrifugation (for 10 minutes at approximately 2000 g, at approximately 2-8° C.), and transferred into individually labeled cryotubes. All cryotubes containing the collected plasma samples were appropriately labeled as to study number, animal number, time point, date of sampling and sample type. All plasma samples were obtained and frozen at approximately −80° C. (±10° C.) within approximately 2 hours after collection of each blood sample until analysis.
Rat plasma bioanalysis was conducted by Pyxant Laboratories. Plasma samples were analyzed for concentrations of brincidofovir and cidofovir using a method based upon protein precipitation extraction followed by LC-MS/MS analysis; calibration ranges for brincidofovir and cidofovir were 1.00-1500 ng/mL and 5.00-750 ng/mL, respectively, (Pyxant study number 3025) for a 50 μL aliquot of rat plasma. Sample analysis for ISR was not performed as part of this non-GLP study.
For the generation of Mean Profiles, all sample concentrations that were below the limit of quantitation (BLQ) were set to 0.
All pharmacokinetic parameter estimates were completed using a Non-Compartmental Model (Model 200-202 for IV infusion administration). The AUClast and AUCinf were calculated using the linear up log down trapezoidal rule.

[1] = female, 15 mg/kg, 15 mg/kg 2-hour IV infusion, Female rats, Day 1
[2] = female, 15 mg/kg, 15 mg/kg 2-hour IV infusion, Female rats, Day 7
[3] = male, 1 mg/kg, brincidofovir 1 mg/kg 2-h IV infusion, male rats, Day 1, BLQ imputed as zero, read-out: Imputed Concentration, Mean
[4] = male, 1 mg/kg, brincidofovir 1 mg/kg 2-h IV infusion, male rats, Day 1, BLQ imputed as zero, read-out: Imputed Concentration, individual animals
[5] = male, 1 mg/kg, 1 mg/kg 2-hour IV infusion, Male rats, Day 1
[6] = male, 1 mg/kg, 1 mg/kg 2-hour IV infusion, Male rats, Day 7
[7] = male, 15 mg/kg, 15 mg/kg 2-hour IV infusion, Male rats, Day 1
[8] = male, 15 mg/kg, 15 mg/kg 2-hour IV infusion, Male rats, Day 7

CCCCCCCCCCCCCCCCOCCCOP(=O)(O)CO[C@H](CO)Cn1ccc(N)nc1=O [Brincidofovir]
AUC(0-t) [1]: 7360 ng·h/mL
Cmax [1]: 3470 ng/mL
Tmax [1]: 1 h
AUC(0-t) [2]: 3420 ng·h/mL
Cmax [2]: 1660 ng/mL
Tmax [2]: 2 h
concentration at 1 h [3]: 227 ng/mL
concentration at 1 h [4]: 156 ng/mL
concentration at 2 h [3]: 235 ng/mL
concentration at 2 h [4]: 220 ng/mL
concentration at 8 h (male, 1 mg/kg, brincidofovir 1 mg/kg 2-h IV infusion, male rats, Day 1, 8 h, BLQ imputed as zero, read-out: Imputed Concentration, Mean): 0 ng/mL
concentration at 8 h (male, 1 mg/kg, brincidofovir 1 mg/kg 2-h IV infusion, male rats, Day 1, 8 h, BLQ imputed as zero, read-out: Imputed Concentration, individual animals): 0 ng/mL
concentration at 24 h (male, 1 mg/kg, brincidofovir 1 mg/kg 2-h IV infusion, male rats, Day 1, 24 h, BLQ imputed as zero, read-out: Imputed Concentration, Mean): 0 ng/mL
concentration at 24 h (male, 1 mg/kg, brincidofovir 1 mg/kg 2-h IV infusion, male rats, Day 1, 24 h, BLQ imputed as zero, read-out: Imputed Concentration, individual animals): 0 ng/mL
concentration at 0 h (male, 1 mg/kg, brincidofovir 1 mg/kg 2-h IV infusion, male rats, Day 7, 0 h, BLQ imputed as zero, read-out: Imputed Concentration, Mean): 0 ng/mL
concentration at 0 h (male, 1 mg/kg, brincidofovir 1 mg/kg 2-h IV infusion, male rats, Day 7, 0 h, BLQ imputed as zero, read-out: Imputed Concentration, individual animals): 0 ng/mL
concentration at 24 h (male, 15 mg/kg, brincidofovir 15 mg/kg, Male, Day 1, 24 h, read-out: brincidofovir Imputed Mean Concentration (IMC)): 1.22 ng/mL
concentration at 24 h (male, 15 mg/kg, brincidofovir 15 mg/kg, Male, Day 1, 24 h, read-out: brincidofovir Mean Concentration (MC)): 1.22 ng/mL
concentration at 8 h (male, 15 mg/kg, brincidofovir 15 mg/kg, Male, Day 7, 8 h, read-out: brincidofovir Imputed Mean Concentration (IMC)): 8.72 ng/mL
concentration at 24 h (male, 15 mg/kg, brincidofovir 15 mg/kg, Male, Day 7, 24 h, read-out: brincidofovir Imputed Mean Concentration (IMC)): 1.45 ng/mL
concentration at 24 h (male, 15 mg/kg, brincidofovir 15 mg/kg, Male, Day 7, 24 h, read-out: brincidofovir Mean Concentration (MC)): 1.45 ng/mL
concentration at 8 h (male, 15 mg/kg, 15 mg/kg, male rats, Day 1, 8 h, read-out: C (Concentration), individual animals): 10.7 ng/mL
concentration at 8 h (male, 15 mg/kg, 15 mg/kg, male rats, Day 1, 8 h, read-out: IC (Imputed Concentration), individual animals): 10.7 ng/mL
concentration at 24 h (male, 15 mg/kg, 15 mg/kg, male rats, Day 1, 24 h, read-out: C (Concentration), individual animals): 1.2 ng/mL
concentration at 24 h (male, 15 mg/kg, 15 mg/kg, male rats, Day 1, 24 h, read-out: IC (Imputed Concentration), individual animals): 1.2 ng/mL
concentration at 8 h (male, 15 mg/kg, 15 mg/kg, male rats, Day 7, 8 h, read-out: C (Concentration), individual animals): 9.82 ng/mL
concentration at 8 h (male, 15 mg/kg, 15 mg/kg, male rats, Day 7, 8 h, read-out: IC (Imputed Concentration), individual animals): 9.82 ng/mL
concentration at 24 h (male, 15 mg/kg, 15 mg/kg, male rats, Day 7, 24 h, read-out: C (Concentration), individual animals): 1.85 ng/mL
concentration at 24 h (male, 15 mg/kg, 15 mg/kg, male rats, Day 7, 24 h, read-out: IC (Imputed Concentration), individual animals): 1.85 ng/mL
Cmax [5]: 235 ng/mL
Tmax [5]: 2 h
Cmax [6]: 208 ng/mL
Tmax [6]: 2 h
AUC(0-t) [7]: 8780 ng·h/mL
Cmax [7]: 4370 ng/mL
Tmax [7]: 1 h
AUC(0-t) [8]: 4090 ng·h/mL
Cmax [8]: 1910 ng/mL
Tmax [8]: 2 h
C (Concentration), individual animals (1 mg/kg, female rats, Day 1, 8 h, listed as BCV, 1 mg/kg): BLQ
C (Concentration), individual animals (1 mg/kg, female rats, Day 1, 24 h): BLQ
C (Concentration), individual animals (1 mg/kg, female rats, Day 7, 0 h): BLQ
C (Concentration), individual animals (1 mg/kg, female rats, Day 7, 8 h, listed as BCV, 1 mg/kg): BLQ
C (Concentration), individual animals (1 mg/kg, female rats, Day 7, 24 h): BLQ
C (Concentration), individual animals (1 mg/kg, male rats, Day 1, 8 h): BLQ
C (Concentration), individual animals (1 mg/kg, male rats, Day 1, 24 h): BLQ
C (Concentration), individual animals (1 mg/kg, male rats, Day 7, 0 h): BLQ
C (Concentration), individual animals (1 mg/kg, male rats, Day 7, 8 h): BLQ
C (Concentration), individual animals (1 mg/kg, male rats, Day 7, 24 h): BLQ
C (Concentration), individual animals (15 mg/kg, female rats, Day 7, 0 h): BLQ
